Read-outs that look alike come from different tables or passages of the source. No end group written: not given here.
How the values were obtained:
Format in all cases: cell-based
[1] = system: Vibrio scophthalmi
Procedure: (§1) A range of bacterial species with the potential to be transferred to developing fish larvae as pathogens or probiotics were selected for use in the study (Table 2). Bacterial isolates were stored at −80 °C and thawed, and 25 µL of the isolates was spread onto marine salt agar (MSA) media. All isolates were incubated at 25 °C for 18 h to reach mid-log growth phase. All isolates were sub-cultured and identified using mass spectrometry (MALDI-TOF) using the BioTyper and MBT 8468 library (Bruker Pty Ltd). The isolate Tenacibaculum discolor was plated on Anacker and Oradal’s marine (AOM) media, incubated for 48 h and identified using the aforementioned method. Bacterial isolates were suspended in sterile saline (0.75% NaCl w/v) to 0.5 McFarland standard. […] The bacterial isolates T. discolor and Pseudoalteromonas sp. require marine salts to grow and were not added to MHB (0‰). The isolate T. discolor requires low nutrients to grow, therefore, a separate MHB (25‰) was prepared at a diluted ratio of 1 part MHB and 7 parts artificial seawater (25‰).
(§2) The protocol was followed to determine the minimum inhibitory concentration (MIC) of the selected peptides. Two MIC assays were performed, firstly to determine whether each peptide precipitated in MHB and thereby required acetic acid adjustments (supplementary materials) and secondly, to determine the antimicrobial activity of each peptide in artificial seawater (25‰). Peptide stock solutions (1.3 mg mL^−1) were made by diluting the peptides in sterile deionised water. MHB was made with deionised water to reach a concentration of approaching 0‰ and artificial sea salts (Sigma-Aldrich® S9883) to reach a salinity of 25‰.
(§3) Once the acetic acid requirement for each peptide was determined (Table 3), the antimicrobial activity of each peptide was tested at a salinity of 0‰ and 25‰ for all bacterial isolates. A stock solution for peptides that required acetic acid was prepared by a 1:2 dilution in acetic acid (0.02% acetic acid w/v, containing 0.4% BSA) solution. In a 96-well polypropylene microtitre plates (Costar® 3879), 100 µL of this peptide stock was added to the first well for each bacterial isolate tested and serially diluted twofold with acetic acid (0.01% acetic acid w/v, containing 0.2% BSA). From each well, 10 µL of each peptide concentration was added to the corresponding wells of a new 96-well microtitre plate. From each of the bacterial suspensions (0‰), 90 µL was added to each well. […] Twofold serial dilutions were made with MHB (0‰). From each of the bacterial suspensions (0‰), 50 µL was added to each well. The same method was followed for testing peptides in MHB at 25‰. All peptide concentrations ranged from 0.125 to 65 µg mL^−1, and the bacterial suspension in each well was approximately 5 × 10^5 CFU mL^−1. The different salinities were used to compare any differences in antimicrobial activity in 0‰ and 25‰ water. […] Each bacterium was trialled in duplicate.

[2] = system: Shewanella sp.
Procedure: as §1, §2, §3

[3] = system: Pseudoalteromonas sp.
Procedure: as §1, §2, §3

[4] = system: Vibrio harveyi
Procedure: as §1, §2, §3

[5] = system: Vibrio harveyi (ATCC 35084)
Procedure: as §1, §2, §3

[6] = system: Tenacibaculum discolor
Procedure: as §1, §2, §3

[7] = system: Escherichia coli (ATCC 25922)
Procedure: as §1, §2, §3

[8] = system: Vibrio alginolyticus
Procedure: as §1, §2, §3

[9] = system: Vibrio rotiferianus
Procedure: as §1, §2, §3

[10] = system: Vibrio scophthalmi; remark: listed apart in the source
Procedure: as §1, §2
(§4) A broth microdilution protocol was followed to test whether the AMPs precipitated in MHB. The isolates T. discolor and Pseudoalteromonas were excluded from this assay because they required marine salts for growth. The peptides HHC10 and HHC36 previously required acetic acid adjustments according to [63] and were not trialled in this assay. To test if peptides required acetic acid, each peptide was diluted 1:2 in acetic acid (0.02% acetic acid w/v, containing 0.4% BSA) solution. In a 96-well polypropylene microtitre plates (Costar® 3879), 100 µL of this peptide stock was added to the first well for each bacterial isolate tested and serially diluted 2-fold with acetic acid (0.01% acetic acid w/v, containing 0.2% BSA). From each well, 10 µL of each peptide concentration was added to the corresponding wells of a new 96-well microtitre plate. From each of the bacterial suspensions in MHB (0‰), 90 µL was added to each well. […] From each of the bacterial suspensions in MHB (0‰), 50 µL was added to each well. All peptide concentrations ranged from 0.125 - 65µg mL^-1 and the bacterial suspension in each well was approximately 5 × 10^5 CFU mL^-1. Antimicrobial peptides that have an MIC value two or more dilutions higher in the assay with no acetic acid, compared to the assay with acetic acid, require acetic acid adjustments. The 96-well plates were incubated at 25 °C and read at 24 and 48 hours. The MIC was visually determined using a Sensititre™ Vizion™ Digital MIC Viewing System (Thermo Scientific™), and the lowest AMP concentration that had no bacterial growth was recorded as the MIC after 48 hours. Each bacterium was trialled in duplicate.

[11] = system: Shewanella sp.; remark: listed apart in the source
Procedure: as §1, §2, §4

[12] = system: Vibrio harveyi; remark: listed apart in the source
Procedure: as §1, §2, §4

[13] = system: Vibrio harveyi (ATCC 35084); remark: listed apart in the source
Procedure: as §1, §2, §4

[14] = system: Escherichia coli (ATCC 25922); remark: listed apart in the source
Procedure: as §1, §2, §4

[15] = system: Vibrio alginolyticus; remark: listed apart in the source
Procedure: as §1, §2, §4

[16] = system: Vibrio rotiferianus; remark: listed apart in the source
Procedure: as §1, §2, §4

[17] = MHB 0‰, acetic acid only for peptides requiring it, 25 °C, MIC after 48 h, ca. 5 × 10^5 CFU mL^-1, duplicate
[18] = MHB with artificial sea salts 25‰, acetic acid only for peptides requiring it, 25 °C, MIC after 48 h, ca. 5 × 10^5 CFU mL^-1, duplicate
[19] = no acetic acid (peptide diluted 1:10 in MHB), MHB 0‰, 25 °C, MIC after 48 h, ca. 5 × 10^5 CFU mL^-1, duplicate
[20] = with acetic acid (0.01% acetic acid w/v, 0.2% BSA diluent), MHB 0‰, 25 °C, MIC after 48 h, ca. 5 × 10^5 CFU mL^-1, duplicate

VLQIKKVLRLLL-NH2 [Peptide 3011]
MIC V. scophthalmi, salinity 0‰ [1, 17]: 1.02 µg/mL | MIC V. scophthalmi, salinity 25‰ [1, 18]: > 65 µg/mL | MIC Shewanella sp., salinity 0‰ [2, 17]: 8.13 µg/mL | MIC Shewanella sp., salinity 25‰ [2, 18]: > 65 µg/mL | MIC Pseudoalteromonas sp., salinity 25‰ ([3]; MHB with artificial sea salts 25‰, 25 °C, MIC after 48 h, ca. 5 × 10^5 CFU mL^-1, duplicate): > 65 µg/mL | MIC V. harveyi, salinity 0‰ [4, 17]: 8.13 µg/mL | MIC V. harveyi, salinity 25‰ [4, 18]: > 65 µg/mL | MIC V. harveyi ATCC 35084, salinity 0‰ [5, 17]: 8.13 µg/mL | MIC V. harveyi ATCC 35084, salinity 25‰ [5, 18]: > 65 µg/mL | MIC T. discolor, salinity 25‰ ([6]; MHB (25‰) diluted 1 part MHB and 7 parts artificial seawater (25‰), 25 °C, MIC after 48 h, ca. 5 × 10^5 CFU mL^-1, duplicate): > 65 µg/mL | MIC E. coli ATCC 25922, salinity 0‰ [7, 17]: 16.25 µg/mL | MIC E. coli ATCC 25922, salinity 25‰ [7, 18]: > 65 µg/mL | MIC V. alginolyticus, salinity 0‰ [8, 17]: 4.06 µg/mL | MIC V. alginolyticus, salinity 25‰ [8, 18]: > 65 µg/mL | MIC V. rotiferianus, salinity 0‰ [9, 17]: 4.06 µg/mL | MIC V. rotiferianus, salinity 25‰ [9, 18]: > 65 µg/mL | MIC V. scophthalmi, No acetic [10, 19]: 2.03 µg/mL | MIC V. scophthalmi, Acetic [10, 20]: 4.06 µg/mL | MIC Shewanella sp., No acetic [11, 19]: 16.25 µg/mL | MIC Shewanella sp., Acetic [11, 20]: 16.25 µg/mL | MIC V. harveyi, No acetic [12, 19]: 32.5 µg/mL | MIC V. harveyi, Acetic [12, 20]: 16.25 µg/mL | MIC V. harveyi ATCC 35084, No acetic [13, 19]: 8.13 µg/mL | MIC V. harveyi ATCC 35084, Acetic [13, 20]: 16.25 µg/mL | MIC E. coli ATCC 25922, No acetic [14, 19]: 8.13 µg/mL | MIC E. coli ATCC 25922, Acetic [14, 20]: 16.25 µg/mL | MIC V. alginolyticus, No acetic [15, 19]: 4.06 µg/mL | MIC V. alginolyticus, Acetic [15, 20]: 4.06 µg/mL | MIC V. rotiferianus, No acetic [16, 19]: 4.06 µg/mL | MIC V. rotiferianus, Acetic [16, 20]: 4.06 µg/mL

WVGVIIKWGLKL-NH2 [Peptide 3018]
MIC V. scophthalmi, salinity 0‰ ([1]; 48 h): 1.02 µg/mL | MIC V. scophthalmi, salinity 25‰ ([1]; 48 h): > 65 µg/mL | MIC Shewanella sp., salinity 0‰ ([2]; 48 h): 16.25 µg/mL | MIC Shewanella sp., salinity 25‰ ([2]; 48 h): > 65 µg/mL | MIC Pseudoalteromonas sp., salinity 25‰ ([3]; 48 h): > 65 µg/mL | MIC V. harveyi, salinity 0‰ ([4]; 48 h): 16.25 µg/mL | MIC V. harveyi, salinity 25‰ ([4]; 48 h): > 65 µg/mL | MIC V. harveyi ATCC 35084, salinity 0‰ ([5]; ATCC 35084, 48 h): 32.5 µg/mL | MIC V. harveyi ATCC 35084, salinity 25‰ ([5]; ATCC 35084, 48 h): > 65 µg/mL | MIC T. discolor, salinity 25‰ ([6]; 48 h): > 65 µg/mL | MIC E. coli ATCC 25922, salinity 0‰ ([7]; ATCC 25922, 48 h): 65 µg/mL | MIC E. coli ATCC 25922, salinity 25‰ ([7]; ATCC 25922, 48 h): > 65 µg/mL | MIC V. alginolyticus, salinity 0‰ ([8]; 48 h): 2.03 µg/mL | MIC V. alginolyticus, salinity 25‰ ([8]; 48 h): > 65 µg/mL | MIC V. rotiferianus, salinity 0‰ ([9]; 48 h): 8.13 µg/mL | MIC V. rotiferianus, salinity 25‰ ([9]; 48 h): > 65 µg/mL | MIC V. scophthalmi, Acetic ([10]; 48 h): 0.25 µg/mL | MIC V. scophthalmi, No acetic ([10]; 48 h): 2.03 µg/mL | MIC Shewanella sp., Acetic ([11]; 48 h): 16.25 µg/mL | MIC Shewanella sp., No acetic ([11]; 48 h): 8.13 µg/mL | MIC V. harveyi, Acetic ([12]; 48 h): 16.25 µg/mL | MIC V. harveyi, No acetic ([12]; 48 h): 16.25 µg/mL | MIC V. harveyi ATCC 35084, Acetic ([13]; ATCC 35084, 48 h): 16.25 µg/mL | MIC V. harveyi ATCC 35084, No acetic ([13]; ATCC 35084, 48 h): 8.13 µg/mL | MIC E. coli ATCC 25922, Acetic ([14]; ATCC 25922, 48 h): > 65 µg/mL | MIC E. coli ATCC 25922, No acetic ([14]; ATCC 25922, 48 h): 16.25 µg/mL | MIC V. alginolyticus, Acetic ([15]; 48 h): 8.13 µg/mL | MIC V. alginolyticus, No acetic ([15]; 48 h): 4.06 µg/mL | MIC V. rotiferianus, Acetic ([16]; 48 h): 8.13 µg/mL | MIC V. rotiferianus, No acetic ([16]; 48 h): 4.06 µg/mL

— paper PMC9246773, “Assessing the Activity of Antimicrobial Peptides Against Common Marine Bacteria Located in Rotifer (Brachionus plicatilis) Cultures” (Probiotics and Antimicrobial Proteins, 2022)
